Measurements taken from patent US5198458A, “Pyrrolidineamide derivatives of acylamino acid and pharmaceutical composition containing the same” (Suntory Limited, priority 1986, dated 1993).

Columns and labels:
[1] = tested on: experimental amnesia caused in rats by scopolamine; experiment: Preventive effect against experimental amnesia caused in rats by scopolamine (passive avoidance learning, intraperitoneal administration); assay type: in vivo, Wister male rats; settings: for No. of avoidances during learning / Initial avoidance time: before scopolamine (3 mg/kg i.p.); for Initial avoidance time: learning; for Avoidance time After 24 hrs / No. of amnesic rats/No. of rats tested / Percentage amnesia: scopolamine 3 mg/kg i.p. after learning, 24 hrs
Experimental: Measurement of preventive effect against experimental amnesia caused in rats by scopolamine (Intraperitoneal administration)
Several of the anti-prolyl endopeptidase compounds according to the present invention were checked for their ability to prevent the inhibition of long-term memory fixation by scopolamine. […] One hour after the administration, electric shocks were applied to the rats so that they would acquire passive avoidance learning. Immediately thereafter, scopolamine was administered intraperitoneally to each rat in an amount of 3 mg per kg of body weight.
The results of the test were assessed 24 hours after the administration of scopolamine. The number of amnesic rats and of sound rats was counted for each of the control group (rats to which the test compounds were not administered but to which only scopolamine and physiological saline were administered intraperitoneally) and the treated group (rats to which both the test compound and scopolamine were administered).

[2] = target: prolyl endopeptidase (Elizabethkingia meningoseptica, UniProt P27028); assay type: biochemical; settings: amount per test tube for 50% inhibition; pH 7.0, 35° C., 10 minutes
Experimental: Measurement of anti-prolyl endopeptidase activity
The method of Yoshimoto and Tsuru [T. Yoshimoto and D. Tsuru, Agric. […] A mixture of 0.0025M Z-glycyl-proline-β-naphthylamide (0.25 ml), 0.1M phosphate buffer (pH, 7.0; 0.99 ml) and a solution of a particular anti-propyl endopeptidase compound (0.01 ml) was incubated in a test tube at 37° C. for 3 minutes. Thereafter, 0.1 ml of a solution of prolyl endopeptidase (0.2 U/ml) was added and the mixture was incubated at 35° C. for 10 minutes. After the reaction, 2.0 ml of Triton X-100 in 1M acetate buffer (pH, 4.0) was added to the reaction mixture so that the final concentration of the surfactant was 10%. The mixture was left at room temperature for 15 minutes and the absorbance (a) at 410 nm was measured.
A sample of a blind test was prepared by using the buffer instead of the anti-prolyl endopeptidase compound and its absorbance (b) was also measured. The percent inhibition of prolyl endopeptidase was calculated by the formula: […]

[3] = Acute toxicity test in mice; settings: mouse, in vivo, ip; intraperitoneal, in DMSO, five mice per group
Experimental: Acute toxicity test in mice
Test samples were prepared by dissolving the respective compounds in DMSO, and a portion (0.1 ml) of the so conditioned test sample was administered intraperitoneally to each of the mice used. Each of the treated groups consisted of five mice.

Sequence of prolyl endopeptidase (P27028 21-705): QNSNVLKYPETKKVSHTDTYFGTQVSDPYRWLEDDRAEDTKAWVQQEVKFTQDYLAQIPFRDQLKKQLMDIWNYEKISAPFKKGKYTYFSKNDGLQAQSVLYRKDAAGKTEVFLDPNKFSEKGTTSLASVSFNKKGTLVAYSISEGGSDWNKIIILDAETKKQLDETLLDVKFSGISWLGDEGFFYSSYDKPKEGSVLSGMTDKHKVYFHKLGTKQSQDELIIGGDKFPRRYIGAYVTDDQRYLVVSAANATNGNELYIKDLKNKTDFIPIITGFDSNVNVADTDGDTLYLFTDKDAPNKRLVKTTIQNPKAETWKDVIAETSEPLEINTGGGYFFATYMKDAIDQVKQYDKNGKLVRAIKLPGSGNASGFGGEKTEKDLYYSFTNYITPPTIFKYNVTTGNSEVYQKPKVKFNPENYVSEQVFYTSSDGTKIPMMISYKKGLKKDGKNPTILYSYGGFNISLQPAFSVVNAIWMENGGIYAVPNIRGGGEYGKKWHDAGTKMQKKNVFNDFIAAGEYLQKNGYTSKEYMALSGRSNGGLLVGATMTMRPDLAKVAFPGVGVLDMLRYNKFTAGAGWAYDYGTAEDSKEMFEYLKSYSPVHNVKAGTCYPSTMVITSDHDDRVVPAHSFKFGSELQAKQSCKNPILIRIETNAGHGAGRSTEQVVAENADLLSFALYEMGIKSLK

CC(C)[C@H](NC(=O)CCCc1ccccc1)C(=O)N1CCCC1 [Compound No. 1, N-[N-(γ-phenyl)butyryl-L-valyl]pyrrolidine]
No. of avoidances during learning ([1]; 25 mg/kg i.p.): 1.8
Initial avoidance time ([1]; 25 mg/kg i.p.): 2.4 s
Avoidance time After 24 hrs ([1]; 25 mg/kg i.p.): 243.0 s
No. of amnesic rats/No. of rats tested ([1]; 25 mg/kg i.p.): 3/10
Percentage amnesia ([1]; 25 mg/kg i.p.): 30

CC(C)C[C@H](NC(=O)CCCc1ccccc1)C(=O)N1CCCC1 [Compound No. 2]
IC50 [2]: 0.15 μg/test tube
No. of avoidances during learning ([1]; 25 mg/kg i.p.): 2.2
Initial avoidance time ([1]; 25 mg/kg i.p.): 2.7 s
Avoidance time After 24 hrs ([1]; 25 mg/kg i.p.): 264.6 s
No. of amnesic rats/No. of rats tested ([1]; 25 mg/kg i.p.): 2/10
Percentage amnesia ([1]; 25 mg/kg i.p.): 20
LD50 [3]: > 600 mg/kg

O=C([C@@H]1CCCN1C(=O)CCCc1ccccc1)N1CCCC1 [Compound No. 18, N-[N-(γ-phenyl)butyryl-L-prolyl]pyrrolidine]
No. of avoidances during learning ([1]; 5 mg/kg i.p.): 1.8
Initial avoidance time ([1]; 5 mg/kg i.p.): 2.8 s
Avoidance time After 24 hrs ([1]; 5 mg/kg i.p.): 300.0 s
No. of amnesic rats/No. of rats tested ([1]; 5 mg/kg i.p.): 0/10
Percentage amnesia ([1]; 5 mg/kg i.p.): 0

O=C([C@@H]1CCCN1C(=O)CCCOc1ccccc1/C=C/c1ccccc1)N1CCCC1 [Compound No. 35, N-{N-[γ(o-(E)-stilbenyloxy)butyryl]-L-prolyl)pyrrolidine]
IC50 [2]: 0.001 μg/test tube

CCCCCCCC/C=C\CCCCCCCC(=O)N1CCC[C@H]1C(=O)N1CCCC1 [Compound No. 43, N-(N-oleoyl-L-prolyl)pyrrolidine]
IC50 [2]: 0.02 μg/test tube
No. of avoidances during learning ([1]; 1 mg/kg i.p.): 3.4
Initial avoidance time ([1]; 1 mg/kg i.p.): 1.9 s
Avoidance time After 24 hrs ([1]; 1 mg/kg i.p.): 240.8 s
No. of amnesic rats/No. of rats tested ([1]; 1 mg/kg i.p.): 2/10
Percentage amnesia ([1]; 1 mg/kg i.p.): 20

CCCC[C@H](NC(=O)CCCc1ccccc1)C(=O)N1CCCC1 [compound 5]
IC50 [2]: 0.15 μg/test tube

CC(C)C[C@H](NC(=O)CCCOc1ccccc1/C=C/c1ccccc1)C(=O)N1CCCC1 [compound 9]
IC50 [2]: 0.03 μg/test tube

CC(C)[C@H](NC(=O)CCCOc1ccccc1/C=C/c1ccccc1)C(=O)N1CCCC1 [compound 10]
IC50 [2]: 0.02 μg/test tube

CC(C)C[C@H](NC(=O)CCCOc1ccc(Cc2ccccc2)cc1)C(=O)N1CCCC1 [compound 12]
IC50 [2]: 0.08 μg/test tube

CC(C)[C@H](NC(=O)CCCOc1ccc(Cc2ccccc2)cc1)C(=O)N1CCCC1 [compound 13]
IC50 [2]: 0.04 μg/test tube

CCCCCCCC/C=C\CCCCCCCC(=O)N[C@@H](CCCC)C(=O)N1CCCC1 [compound 16]
IC50 [2]: 0.07 μg/test tube
No. of avoidances during learning ([1]; 20 mg/kg i.p.): 2.1
Initial avoidance time ([1]; 20 mg/kg i.p.): 2.2 s
Avoidance time After 24 hrs ([1]; 20 mg/kg i.p.): 252.0 s
No. of amnesic rats/No. of rats tested ([1]; 20 mg/kg i.p.): 2/10
Percentage amnesia ([1]; 20 mg/kg i.p.): 20

O=C([C@@H]1CCCN1C(=O)COc1ccc(Cl)cc1)N1CCCC1 [compound 20]
IC50 [2]: 0.20 μg/test tube

O=C([C@@H]1CCCN1C(=O)CCCOc1ccccc1)N1CCCC1 [compound 21]
IC50 [2]: 0.001 μg/test tube
LD50 [3]: 350 mg/kg

O=C([C@@H]1CCCN1C(=O)CCCOc1ccccc1O)N1CCCC1 [compound 22]
IC50 [2]: 0.008 μg/test tube

CCC(=O)c1ccc(OCCCC(=O)N2CCC[C@H]2C(=O)N2CCCC2)cc1 [compound 23]
IC50 [2]: 0.003 μg/test tube

CCC(=O)c1ccccc1OCCCC(=O)N1CCC[C@H]1C(=O)N1CCCC1 [compound 24]
IC50 [2]: 0.004 μg/test tube

CCCCCCCCCc1ccc(OCCCC(=O)N2CCC[C@H]2C(=O)N2CCCC2)cc1 [compound 25]
IC50 [2]: 0.008 μg/test tube

C=CCc1ccccc1OCCCC(=O)N1CCC[C@H]1C(=O)N1CCCC1 [compound 26]
IC50 [2]: 0.002 μg/test tube
LD50 [3]: 390 mg/kg

C=CCOc1ccccc1CCCC(=O)N1CCC[C@H]1C(=O)N1CCCC1 [compound 27]
IC50 [2]: 0.01 μg/test tube
LD50 [3]: 390 mg/kg

O=C([C@@H]1CCCN1C(=O)CCCCOc1ccc(Oc2ccccc2)cc1)N1CCCC1 [compound 29]
IC50 [2]: 0.009 μg/test tube

O=C([C@@H]1CCCN1C(=O)CCCOc1ccccc1OCc1ccccc1)N1CCCC1 [compound 30]
IC50 [2]: 0.005 μg/test tube

O=C(c1ccccc1)c1ccc(OCCCC(=O)N2CCC[C@H]2C(=O)N2CCCC2)cc1 [compound 31]
IC50 [2]: 0.004 μg/test tube

O=C(c1ccccc1)c1ccccc1OCCCC(=O)N1CCC[C@H]1C(=O)N1CCCC1 [compound 32]
IC50 [2]: 0.001 μg/test tube

O=C([C@@H]1CCCN1C(=O)CCCOc1cccc(Cc2ccccc2)c1)N1CCCC1 [compound 33]
IC50 [2]: 0.0004 μg/test tube

O=C([C@@H]1CCCN1C(=O)CCCOc1ccccc1Cc1ccccc1)N1CCCC1 [compound 34]
IC50 [2]: 0.001 μg/test tube

O=C([C@@H]1CCCN1C(=O)CCCOc1ccc(/C=C/c2ccccc2)cc1)N1CCCC1 [compound 36]
IC50 [2]: 0.003 μg/test tube

O=C([C@@H]1CCCN1C(=O)CCCOc1ccccc1CCc1ccccc1)N1CCCC1 [compound 37]
IC50 [2]: 0.002 μg/test tube
LD50 [3]: 350 mg/kg

O=C([C@@H]1CCCN1C(=O)CCOc1ccccc1/C=C/c1ccccc1)N1CCCC1 [compound 39]
IC50 [2]: 0.003 μg/test tube

O=C([C@@H]1CCCN1C(=O)CCCCOc1ccccc1/C=C/c1ccccc1)N1CCCC1 [compound 40]
IC50 [2]: 0.002 μg/test tube

O=C(/C=C/c1ccccc1OCCCC(=O)N1CCC[C@H]1C(=O)N1CCCC1)c1ccccc1 [compound 41]
IC50 [2]: 0.001 μg/test tube

O=C(/C=C/c1ccccc1)c1ccccc1OCCCC(=O)N1CCC[C@H]1C(=O)N1CCCC1 [compound 42]
IC50 [2]: 0.0008 μg/test tube
LD50 [3]: 360 mg/kg

CCCCC/C=C\C/C=C\CCCCCCCC(=O)N1CCC[C@H]1C(=O)N1CCCC1 [compound 46]
IC50 [2]: 0.015 μg/test tube
